Reference: PMC11834790, “Pyridine indole hybrids as novel potent CYP17A1 inhibitors” (Journal of Enzyme Inhibition and Medicinal Chemistry, 2025)
“And” between values parts separate entries of the source, which are not always exact repeats. Equal values may be shown once.

Assays:
[1] = target: T1, CYP17A1 (Homo sapiens, UniProt P05093); experiment: CYP17A1 activity calculated as ratios of steroid products to substrates (LC-MS); type: cell-based; settings: normalised to DMSO-treated cells (100%), NCI-H295R
T1 construct: immortalised human adrenal cells expressing CYP17A1 and other steroidogenic enzymes; endogenous in cells; host or cells: NCI-H295R (human adrenal cells)
T1 sequence (P05093 1-508): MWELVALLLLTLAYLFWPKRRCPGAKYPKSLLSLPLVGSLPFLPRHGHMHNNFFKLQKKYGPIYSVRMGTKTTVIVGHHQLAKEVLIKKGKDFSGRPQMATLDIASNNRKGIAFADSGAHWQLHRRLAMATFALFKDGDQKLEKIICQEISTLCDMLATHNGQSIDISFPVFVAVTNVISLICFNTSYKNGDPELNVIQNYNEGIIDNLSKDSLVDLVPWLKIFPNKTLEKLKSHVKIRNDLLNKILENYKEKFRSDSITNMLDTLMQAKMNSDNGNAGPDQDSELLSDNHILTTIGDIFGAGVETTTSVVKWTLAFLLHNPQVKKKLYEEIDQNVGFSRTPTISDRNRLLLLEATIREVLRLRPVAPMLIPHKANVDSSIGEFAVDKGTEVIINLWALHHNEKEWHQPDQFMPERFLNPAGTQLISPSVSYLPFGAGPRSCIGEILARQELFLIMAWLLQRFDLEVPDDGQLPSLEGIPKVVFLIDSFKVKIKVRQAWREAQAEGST
Experimental: (§1) Steroid quantification was performed using Liquid Chromatography–Mass Spectrometry (LC-MS), following established protocols to study effect of compounds on adrenal steroidogenesis. Human adrenal NCI-H295R cells were seeded in 12-well plates at 500 000 cells per well and treated with fresh growth medium containing the test compounds for 4 h. Subsequently, 1 µM pregnenolone was added and incubated for an additional 4 h. Steroids were extracted from 500 µL aliquots of cell media, separated, and quantified according to the referenced methodology.
To provide deeper insights into CYP17A1 inhibition, the enzyme activity was calculated using ratios of steroid products to substrates, focusing on dual activities of CYP17A1 (Figure 4(B)).

[2] = tested on: DU-145 cells; experiment: Scratch (wound healing) assay; type: cell-based, human; settings: DU-145, 10 µM; for Wound area, Mean (area remaining open): 24 h, DMSO 170.5; for Effect on cell migration (in words): after 24 h
Experimental: Human prostate cancer DU-145 cells show strong cell proliferation and therefore, are an established model for assay of antiproliferative effects of test compounds. DU-145 cells were plated in 24-well plates at 50 000 cells per well and grown until they reached 85% confluence. To inhibit cell proliferation, cells were treated with 5 µg/mL mitomycin for 2 h. A wound was created using a 10 µL pipette tip. The cells were then exposed to drugs at a concentration of 10 µM, while control wells received DMSO. Wound closure was observed and photographed using an optical microscope after 24 h. Images were analysed using ImageJ software (version 1.54j).

[3] = target: T1, CYP17A1; experiment: CYP17A1 17,20-lyase activity assay in NCI-H295R cells (tritiated water release); type: cell-based; settings: dose-response, read-out: IC50, inhibition of 17,20-lyase activity
[4] = tested on: adrenal steroidogenesis in NCI-H295R cells; experiment: Steroid profiling by LC-MS in NCI-H295R cells; type: cell-based, human; settings: compounds at 10 µM; for Androsterone, Mean / Testosterone, Mean / Progesterone, Mean / Androstendione, Mean / 17a-Hydroxyprogesterone, Mean / DHEA, Mean / 11-Deoxycortisol, Mean / 11-Deoxycorticosterone, Mean / Pregnenolone, Mean: 1 µM pregnenolone; for Androsterone, Mean / Cortisone, Mean / DHEA-S, Mean / Dihydrotestosterone, Mean: DMSO 0; for Testosterone, Mean: DMSO 0.4785; for Progesterone, Mean: DMSO 4.814; for Androstendione, Mean: DMSO 7.577; for 17a-Hydroxyprogesterone, Mean: DMSO 9.967; for DHEA, Mean: DMSO 15.119; for 11-Deoxycortisol, Mean: DMSO 26.594; for 11-Deoxycorticosterone, Mean: DMSO 28.1555; for Pregnenolone, Mean: DMSO 2043.56; for Cortisone, Mean / DHEA-S, Mean / Dihydrotestosterone, Mean: not detected within the experimental timeframe
Experimental: as §1

[5] = target: T1, CYP17A1; experiment: CYP17A1 17,20-lyase activity assay in NCI-H295R cells (tritiated water release); type: cell-based; settings: 4 h, DMSO = 100, read-out: CYP17A1 Lyase activity, Mean (percentage of activity remaining relative to the control)
Experimental: (§2) Human adrenal NCI-H295R cells are an established model for assay of CYP17A1 activities. The NCI-H295R cells were seeded in 12-well plates at 500 000 cells per well and incubated overnight. On the following day, 10 µM of test compounds were added to the wells with fresh medium and incubated for 4 h. Abiraterone was used as a reference, and DMSO was included as a control. For assessing CYP17A1 hydroxylase activity, cells were treated with [^14C]-Progesterone at 10 000 cpm/1 µM per well. Trilostane was added prior to the test compounds and substrate to inhibit 3β-hydroxysteroid dehydrogenase activity so that a clean assay of only CYP17A1 activity could be performed[20]^,[27]^,[28]. Radiolabeled steroids were extracted from the media using a mixture of ethyl acetate and isooctane (1:1 v/v) and separated by Thin Layer Chromatography (TLC) on silica gel-coated aluminium plates (Supelco® Analytics, Sigma-Aldrich Chemie GmbH, Taufkirchen, Germany). TLC spots were visualised on a phosphor screen and detected by autoradiography using a Typhoon™ FLA-7000 PhosphorImager (GE Healthcare, Uppsala, Sweden). Radioactivity was quantified with ImageQuant™ TL analysis software (GE Healthcare Europe GmbH, Freiburg, Germany), and enzyme activity was expressed as the percentage of radioactivity incorporated into the product relative to the total radioactivity. For CYP17A1 lyase activity, cells were exposed to 50 000 cpm/1 µM [21-^3H]-17α-hydroxypregnenolone per well under similar conditions. The tritiated water release assay was used to measure the conversion of 17OH-Pregnenolone to DHEA. Steroids in the media were precipitated using a 5% activated charcoal/0.5% dextran solution. Enzyme activity was evaluated based on the water-soluble tritiated by-product formed in equimolar amounts with DHEA, with radioactivity in the aqueous phase quantified by liquid scintillation counting (MicroBeta2® Plate Counter, PerkinElmer Inc., Waltham, MA, USA). Percent inhibition was calculated relative to control samples.

[6] = target: T1, CYP17A1; experiment: CYP17A1 17α-hydroxylase activity assay in NCI-H295R cells ([14C]-progesterone, TLC); type: cell-based; settings: 4 h, DMSO = 100, read-out: CYP17A1 Hydroxylase activity, Mean (percentage of activity remaining relative to the control)
Experimental: as §2

[7] = tested on: LNCaP cells; experiment: Alamar blue (resazurin) cell viability, LNCaP; type: cell-based, human; settings: 10 µM; for Effect on LNCaP cell viability (in words): 48 h
Experimental: (§3) LNCaP and RWPE-1 cells were plated in 96-well plates at 10 000 cells per well and incubated overnight at 37 °C with 5% CO2. VCaP cells were plated at 12 000 cells per well under the same conditions. After 24 h, the medium was replaced with fresh medium containing the compounds or abiraterone at a final concentration of 10 µM. Cells were incubated for an additional 24 and 48 h. Cell viability was measured using the Alamar Blue assay. Post-incubation, 0.05 mg/mL Alamar Blue solution in phosphate-buffered saline (PBS) was added to each well. The plates were incubated in the dark at 37 °C for 4 h, and fluorescence was measured at an excitation wavelength of 550 nm and an emission wavelength of 590 nm. Cell viability was calculated relative to control sample treated with DMSO. All experiments were conducted in triplicate.

[8] = tested on: VCaP cells; experiment: Alamar blue (resazurin) cell viability, VCaP; type: cell-based, human; settings: Homo sapiens, VCaP, 24 h
Experimental: as §3

`CCCn1nnc2cc(-c3cc(-c4ccncc4)c(C#N)c(N)n3)ccc21` [Compound 1, 2-Amino-6–(1-propyl-1H-benzo[d][1,2,3]triazol-5-yl)-[4,4′-bipyridine]-3-carbonitrile] was tested, and the “17α-Hydroxylase activity (ratios of steroid products to substrates)” value [1] was 1.8%, the “Combined 17α-hydroxylase and 17,20-lyase activity (ratios of steroid products to substrates)” value [1] was 6.6% and the “Wound area, Mean (area remaining open)” value [2] was 731.5 Pixels^2. The “Effect on cell migration (in words)” value [2] was “less pronounced effect comparable to that exerted by abiraterone”, the IC50 [3] was 0.01 µM and the “Androsterone, Mean” value [4] was 0 nmol/L. The “Testosterone, Mean” value [4] was 0.4455 nmol/L, the “Progesterone, Mean” value [4] was 27.8235 nmol/L and the “Androstendione, Mean” value [4] was 1.564 nmol/L. The “17a-Hydroxyprogesterone, Mean” value [4] was 0.977 nmol/L, the “DHEA, Mean” value [4] was 1.1015 nmol/L and the “11-Deoxycortisol, Mean” value [4] was 5.22 nmol/L. For the same molecule, the “11-Deoxycorticosterone, Mean” value [4] was 41.58 nmol/L and 41.577 nmol/L, the “Pregnenolone, Mean” value [4] was 2228.179 nmol/L and the “Cortisone, Mean” value [4] was 0 nmol/L. For the same molecule, the “DHEA-S, Mean” value [4] was 0 nmol/L, the “Dihydrotestosterone, Mean” value [4] was 0 nmol/L and the remaining activity at 10 µM [5] was 46.3%. The remaining activity at 10 µM [6] was 45%.
`N#Cc1c(-c2ccncc2)cc(-c2cccnc2)c(C#N)c1N` [Compound 9, 2-Amino-4-(pyridin-3-yl)-6-(pyridin-4-yl)isophthalonitrile] showed a remaining activity at 10 µM [5] of 66.8% and a remaining activity at 10 µM [6] of 63%.
With `c1cc(-c2ccncc2)cc(-c2ccc3[nH]ccc3c2)c1` [Compound 14, 5-(3-(Pyridin-4-yl)phenyl)-1H-indole] the “17α-Hydroxylase activity (ratios of steroid products to substrates)” value [1] was 1.5%, the “Wound area, Mean (area remaining open)” value [2] was 7074 Pixels^2 and the “Effect on cell migration (in words)” value [2] was “significant inhibition of cell migration”. For the same molecule, the IC50 [3] was 0.026 µM, the “Androsterone, Mean” value [4] was 0.61 nmol/L and the “Testosterone, Mean” value [4] was 0.4105 nmol/L. The “Progesterone, Mean” value [4] was 51.7765 nmol/L, the “Androstendione, Mean” value [4] was 1.359 nmol/L and the “17a-Hydroxyprogesterone, Mean” value [4] was 1.6245 nmol/L. For the same molecule, the “DHEA, Mean” value [4] was 0.6075 nmol/L, the “11-Deoxycortisol, Mean” value [4] was 3.75 nmol/L and 3.7485 nmol/L and the “11-Deoxycorticosterone, Mean” value [4] was 3.518 nmol/L. For the same molecule, the “Pregnenolone, Mean” value [4] was 2377.463 nmol/L, the “Cortisone, Mean” value [4] was 0 nmol/L and the “DHEA-S, Mean” value [4] was 0 nmol/L. For the same molecule, the “Dihydrotestosterone, Mean” value [4] was 0 nmol/L, the remaining activity at 10 µM [5] was 23.9% and the “Effect on LNCaP cell viability (in words)” value [7] was “strong effect”. It also gave a remaining activity at 10 µM [6] of 35%.
Molecule `c1cncc(-c2ccc(-c3ccc4[nH]ccc4c3)cc2)c1` [Compound 13, 5-(4-(Pyridin-3-yl)phenyl)-1H-indole] has a remaining activity at 10 µM [5] of 93.5% and a remaining activity at 10 µM [6] of 76%.
For `N#Cc1c(-c2cccnc2)cc(-c2ccccc2)nc1N` [Compound 4, 2′-Amino-6′-phenyl-[3,4′-bipyridine]-3′-carbonitrile], the remaining activity at 10 µM [5] was 68.5% and the remaining activity at 10 µM [6] was 71%.
`N#Cc1c(-c2ccccc2)cc(-c2ccccc2)nc1N` [Compound 2, 2-Amino-4,6-diphenylnicotinonitrile] gave a remaining activity at 10 µM [5] of 93.7% and a remaining activity at 10 µM [6] of 67%.
With `CCCn1nnc2cc(-c3cc(-c4ccncc4)c(C#N)c(N)c3C#N)ccc21` [Compound 10, 2-Amino-4–(1-propyl-1H-benzo[d][1,2,3]triazol-5-yl)-6-(pyridin-4-yl)isophthalonitrile] the remaining activity at 10 µM [5] was 58.2% and the remaining activity at 10 µM [6] was 32%.
`c1cc(-c2ccc(-c3ccc4[nH]ccc4c3)cc2)ccn1` [Compound 15, 5-(4-(Pyridin-4-yl)phenyl)-1H-indole] was tested, and the remaining activity at 10 µM [5] was 57.3%, the “Effect on LNCaP cell viability (in words)” value [7] was “strong effect” and the remaining activity at 10 µM [6] was 87%.
With `N#Cc1c(-c2ccccc2)cc(-c2ccncc2)c(C#N)c1N` [Compound 6, 3-Amino-5-(pyridin-4-yl)-[1,1′-biphenyl]-2,4-dicarbonitrile] the viability at 10 µM [8] was < 50%, the remaining activity at 10 µM [5] was 57.4% and the “Cytotoxic effect on LNCaP cells (in words)” value ([7]; 24 and 48 h) was “marked reduction in viability”. It also gave a remaining activity at 10 µM [6] of 53%.
With `N#Cc1c(-c2cccnc2)cc(-c2cccnc2)c(C#N)c1N` [Compound 7, 2-Amino-4,6-di(pyridin-3-yl)isophthalonitrile] the remaining activity at 10 µM [5] was 113% and the remaining activity at 10 µM [6] was 96%.
For `N#Cc1c(-c2ccccc2)cc(-c2cccnc2)nc1N` [Compound 3, 6-Amino-4-phenyl-[2,3′-bipyridine]-5-carbonitrile], the remaining activity at 10 µM [5] was 94.7% and the remaining activity at 10 µM [6] was 84%.
Molecule `N#Cc1c(-c2ccncc2)cc(-c2ccncc2)c(C#N)c1N` [Compound 8, 2-Amino-4,6-di(pyridin-4-yl)isophthalonitrile] has a remaining activity at 10 µM [5] of 84.8% and a remaining activity at 10 µM [6] of 103%.
